Legend:
Format in all cases: cell-based
human TLR7 = target: T1, human TLR7 (Homo sapiens, UniProt Q9NYK1); assay: TLR7 inhibition reporter assay (HEK-Blue cells, SEAP reporter, gardiquimod stimulation); details: HEK-Blue cells overexpressing human TLR7, SEAP reporter, gardiquimod 7.5 μM
T1 construct: host or cells: HEK-Blue cells
T1 sequence (Q9NYK1 27-1049): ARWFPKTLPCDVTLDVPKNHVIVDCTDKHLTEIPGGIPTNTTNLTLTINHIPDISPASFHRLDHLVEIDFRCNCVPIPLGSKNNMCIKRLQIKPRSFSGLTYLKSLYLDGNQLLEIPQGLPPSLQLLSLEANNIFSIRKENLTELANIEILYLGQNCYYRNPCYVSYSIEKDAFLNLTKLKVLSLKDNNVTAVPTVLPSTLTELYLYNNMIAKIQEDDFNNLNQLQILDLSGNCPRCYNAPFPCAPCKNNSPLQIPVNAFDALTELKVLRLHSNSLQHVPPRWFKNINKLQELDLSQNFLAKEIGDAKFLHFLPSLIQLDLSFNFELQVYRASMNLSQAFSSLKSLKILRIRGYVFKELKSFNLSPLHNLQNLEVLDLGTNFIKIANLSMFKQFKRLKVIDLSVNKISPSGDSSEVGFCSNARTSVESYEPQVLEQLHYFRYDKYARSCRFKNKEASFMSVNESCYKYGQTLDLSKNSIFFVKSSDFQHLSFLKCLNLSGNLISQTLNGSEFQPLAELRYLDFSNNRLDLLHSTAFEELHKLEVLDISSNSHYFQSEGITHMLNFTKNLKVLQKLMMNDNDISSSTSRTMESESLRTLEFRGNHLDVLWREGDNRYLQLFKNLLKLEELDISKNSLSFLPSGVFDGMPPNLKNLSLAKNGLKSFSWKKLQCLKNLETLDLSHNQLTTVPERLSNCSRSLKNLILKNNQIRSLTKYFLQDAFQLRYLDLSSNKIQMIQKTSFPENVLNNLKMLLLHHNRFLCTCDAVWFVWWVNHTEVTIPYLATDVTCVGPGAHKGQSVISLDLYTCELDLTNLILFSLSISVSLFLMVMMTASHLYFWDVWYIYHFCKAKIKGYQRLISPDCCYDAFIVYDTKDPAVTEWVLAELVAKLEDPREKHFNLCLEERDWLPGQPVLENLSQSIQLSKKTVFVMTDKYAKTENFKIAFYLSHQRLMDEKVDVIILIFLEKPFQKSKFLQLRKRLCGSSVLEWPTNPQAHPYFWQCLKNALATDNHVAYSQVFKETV
In short: (§1)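 HEK-Blue cells overexpressing human TLR7, TLR8 or TLR9, with an NF-κB/AP-1-driven SEAP reporter, pre-treated 30 min at room temperature with compound (0.05 nM-50 μM final). Stimulated with 7.5 μM gardiquimod (TLR7), 15.9 μM R848 (TLR8) or 5 nM ODN2006 (TLR9), then 22 h at 37° C. SEAP read with HEK-Blue Detection; % inhibition set against agonist+DMSO and known-inhibitor wells.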

human TLR8 = target: T2, human TLR8 (Homo sapiens, UniProt Q9NR97); assay: TLR8 inhibition reporter assay (HEK-Blue cells, SEAP reporter, R848 stimulation); details: HEK-Blue cells overexpressing human TLR8, SEAP reporter, R848 15.9 μM
T2 construct: host or cells: HEK-Blue cells
T2 sequence (Q9NR97 27-1041): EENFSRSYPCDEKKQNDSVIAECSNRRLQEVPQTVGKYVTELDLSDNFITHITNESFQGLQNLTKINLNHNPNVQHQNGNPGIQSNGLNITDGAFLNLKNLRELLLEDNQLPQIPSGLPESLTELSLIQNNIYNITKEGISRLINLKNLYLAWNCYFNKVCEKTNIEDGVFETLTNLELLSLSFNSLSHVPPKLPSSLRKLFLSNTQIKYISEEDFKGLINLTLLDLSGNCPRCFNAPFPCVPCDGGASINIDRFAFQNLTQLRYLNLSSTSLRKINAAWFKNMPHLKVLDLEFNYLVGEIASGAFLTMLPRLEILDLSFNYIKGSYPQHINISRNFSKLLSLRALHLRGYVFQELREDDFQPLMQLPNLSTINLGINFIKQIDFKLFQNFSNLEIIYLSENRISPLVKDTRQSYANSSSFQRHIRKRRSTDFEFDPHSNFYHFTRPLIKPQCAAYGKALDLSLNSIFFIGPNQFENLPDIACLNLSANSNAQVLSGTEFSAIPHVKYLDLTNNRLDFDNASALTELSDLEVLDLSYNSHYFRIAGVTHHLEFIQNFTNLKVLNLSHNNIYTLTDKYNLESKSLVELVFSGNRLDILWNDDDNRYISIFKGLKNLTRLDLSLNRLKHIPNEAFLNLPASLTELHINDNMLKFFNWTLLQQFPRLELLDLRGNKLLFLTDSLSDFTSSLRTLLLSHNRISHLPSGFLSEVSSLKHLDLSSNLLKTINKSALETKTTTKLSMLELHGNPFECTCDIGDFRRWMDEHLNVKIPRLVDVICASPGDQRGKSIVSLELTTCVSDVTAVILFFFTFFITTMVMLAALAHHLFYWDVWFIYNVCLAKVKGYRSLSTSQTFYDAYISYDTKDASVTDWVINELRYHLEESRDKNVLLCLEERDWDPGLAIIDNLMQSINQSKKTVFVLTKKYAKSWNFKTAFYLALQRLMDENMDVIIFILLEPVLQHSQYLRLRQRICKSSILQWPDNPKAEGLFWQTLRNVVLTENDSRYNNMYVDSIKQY
In short: as §1

human TLR9 = target: T3, human TLR9 (Homo sapiens, UniProt Q9NR96); assay: TLR9 inhibition reporter assay (HEK-Blue cells, SEAP reporter, ODN2006 stimulation); details: HEK-Blue cells overexpressing human TLR9, SEAP reporter, ODN2006 5 nM
T3 construct: host or cells: HEK-Blue cells
T3 sequence (Q9NR96 26-1032): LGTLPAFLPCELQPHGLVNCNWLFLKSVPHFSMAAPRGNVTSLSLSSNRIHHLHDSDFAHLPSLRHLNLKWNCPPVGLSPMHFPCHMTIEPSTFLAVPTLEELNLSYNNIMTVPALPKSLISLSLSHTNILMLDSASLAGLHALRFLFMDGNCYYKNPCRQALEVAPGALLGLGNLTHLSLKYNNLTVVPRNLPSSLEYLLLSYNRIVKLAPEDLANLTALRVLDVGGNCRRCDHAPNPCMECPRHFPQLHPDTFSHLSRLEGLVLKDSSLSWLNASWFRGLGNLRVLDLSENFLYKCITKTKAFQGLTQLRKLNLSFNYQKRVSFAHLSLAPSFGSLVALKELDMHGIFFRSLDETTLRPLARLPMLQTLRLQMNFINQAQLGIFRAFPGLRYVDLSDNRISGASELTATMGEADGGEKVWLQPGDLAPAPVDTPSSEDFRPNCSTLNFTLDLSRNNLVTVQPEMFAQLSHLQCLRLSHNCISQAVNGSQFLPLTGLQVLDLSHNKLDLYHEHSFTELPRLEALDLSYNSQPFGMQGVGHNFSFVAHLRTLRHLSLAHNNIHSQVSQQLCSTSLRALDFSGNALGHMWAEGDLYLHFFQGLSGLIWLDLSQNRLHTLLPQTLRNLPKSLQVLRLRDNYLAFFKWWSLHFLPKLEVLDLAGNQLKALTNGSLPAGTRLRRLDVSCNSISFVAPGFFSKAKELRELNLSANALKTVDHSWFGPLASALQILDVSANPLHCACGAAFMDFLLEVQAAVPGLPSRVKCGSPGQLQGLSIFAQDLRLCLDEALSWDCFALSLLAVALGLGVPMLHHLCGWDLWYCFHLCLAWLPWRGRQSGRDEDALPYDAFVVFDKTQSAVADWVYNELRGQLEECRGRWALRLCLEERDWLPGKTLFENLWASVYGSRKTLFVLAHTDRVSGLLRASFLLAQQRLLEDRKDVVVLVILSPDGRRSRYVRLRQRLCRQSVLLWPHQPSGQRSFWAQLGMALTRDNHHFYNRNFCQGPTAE
In short: as §1

IC50 (human TLR7) [nM] | IC50 (human TLR8) [nM] | IC50 (human TLR9) [nM] | SMILES
4.37 | 2.07 | 14800 | Cc1cc(-c2[nH]nc(C(=O)N3CCOCC3)c2C(C)C)cn2ncnc12 [Example 30]
6.96 | 2.26 | 6240 | Cc1cc(-c2[nH]nc(-c3ccc(C4CN(C)C4)cc3)c2C(C)C)cn2ncnc12 [Example 324, 6-(4-isopropyl-3-(4-(1-methylazetidin-3-yl)phenyl)-1H-pyrazol-5-yl)-8-methyl-[1,2,4]triazolo[1,5-a]pyridine]
13.7 | 26.5 | 5550 | CNC(=O)CN1CCc2cc(-c3n[nH]c(-c4cc(C)c5ncnn5c4)c3C(C)C)ccc2C1 [Example 273]
0.18 | 0.09 | 15800 | COc1cc(-c2[nH]nc(-c3ccc(C4CCNCC4)cc3)c2C(C)C)cn2ncnc12 [compound 308]
0.96 | 1.94 | 4560 | Cc1cc(-c2[nH]nc(-c3ccc4c(c3)CCN(CC(=O)N(C)C)C4)c2C(C)C)cn2ncnc12 [Example 271, 2-(6-(4-isopropyl-5-(8-methyl-[1,2,4]triazolo[1,5-a]pyridin-6-yl)-1H-pyrazol-3-yl)-3,4-dihydroisoquinolin-2(1H)-yl)-N,N-dimethylacetamide]
3.6 | 190 | 15400 | Cc1cc(-c2[nH]nc(C(=O)N[C@H]3CC[C@H](N(CCC(C)(C)C)CCC(C)(C)C)CC3)c2C(C)C)cn2ncnc12 [Example 107]
10.5 | 28.1 | 5460 | Cc1cc(-c2[nH]nc(-c3ncc(C4CCN(C)CC4)cn3)c2C(C)C)cn2ncnc12 [Example 368]
9.92 | 36 | 5660 | CCc1c(C(=O)NC2CCN(C)CC2)n[nH]c1-c1cc(C)c2ncnn2c1 [Example 181, 4-ethyl-5-(8-methyl-[1,2,4]triazolo[1,5-a]pyridin-6-yl)-N-(1-methylpiperidin-4-yl)-1H-pyrazole-3-carboxamide]
37.4 | 11.9 | 16400 | COc1ncc(CN2CCC(NC(=O)c3n[nH]c(-c4cc(C)c5ncnn5c4)c3C(C)C)CC2)cn1 [Example 157]
1.4 | 4.38 | > 50000 | COc1cc(-c2[nH]nc(-c3nc4c(s3)CNCC4)c2C(C)C)cn2ncnc12 [Example 220]
1 | 0.52 | 20000 | Cc1cc(-c2[nH]nc(C3CCN(C(=O)CCN(C)C)CC3)c2C(C)C)cn2ncnc12 [Example 208, 3-(dimethylamino)-1-(4-(4-isopropyl-5-(8-methyl-[1,2,4]triazolo[1,5-a]pyridin-6-yl)-1H-pyrazol-3-yl)piperidin-1-yl)propan-1-one]
60.3 | 41.6 | > 50000 | Cc1cc(-c2[nH]nc(C(=O)NCC3CN(CC(C)(C)C)CCO3)c2C(C)C)cn2ncnc12 (stereo not drawn) [Example 145]
7.7 | 2.71 | > 50000 | Cc1cc(-c2[nH]nc(C3CCC(NCCN(C)C)CC3)c2C(C)C)cn2ncnc12 (single isomer, unassigned) [Example 285]
1.37 | 1.9 | 1330 | COc1cc(-c2[nH]nc(C(=O)N3CCCN(C)CC3)c2C(C)C)cn2ncnc12 [Example 10]
29.7 | 2.87 | 388 | CNC(=O)c1n[nH]c(-c2cc(C)c3ncnn3c2)c1C(C)C [Example 27]
13.6 | 0.86 | 34900 | CCNc1ccc2nc(-c3n[nH]c(-c4cc(C)c5ncnn5c4)c3C(C)C)sc2c1 [Example 257]
0.88 | 0.87 | 383 | Cc1cc(-c2[nH]nc(C(=O)N[C@H]3CCCN(C4COC4)C3)c2C(C)C)cn2ncnc12 [Example 166]
8.99 | 14 | 3460 | Cc1cc(-c2[nH]nc(-c3nc4c(s3)CN(C(=O)CN(C)C)CC4)c2C(C)C)cn2ncnc12 [Example 270]
0.31 | 2.34 | 4110 | Cc1cc(-c2[nH]nc(C(=O)N[C@H]3CC[C@@H](NCC4CCOCC4)CC3)c2C(C)C)cn2ncnc12 [Example 92]
2.74 | 142 | > 50000 | Cc1cc(-c2[nH]nc(-c3ccc(N4CCNCC4)cc3)c2C(C)C)cn2ncnc12 [Example 406]
1.05 | 1.01 | 16600 | Cc1cc(-c2[nH]nc(-c3ccc4c(c3)CCN(C)C4)c2C(C)C)cn2ncnc12 [Example 235, 6-(4-isopropyl-5-(8-methyl-[1,2,4]triazolo[1,5-a]pyridin-6-yl)-1H-pyrazol-3-yl)-2-methyl-1,2,3,4-tetrahydroisoquinoline]
5.69 | 2.57 | 3740 | Cc1cc(-c2[nH]nc(C(=O)N3CC[C@@H](N(C)C)C3)c2C(C)C)cn2ncnc12 [Example 18]

Reference: patent US20230117470A1, “SUBSTITUTED PYRAZOLE COMPOUNDS AS TOLL RECEPTOR INHIBITORS” (BRISTOL-MYERS SQUIBB COMPANY, priority 2019, published 2023)
